Where a name gives a salt, the structure may show the parent alone.
Assay: Tensile properties (GB/T 1040-2006): tensile modulus at 100%, elongation at break, elastic modulus
Format: physicochemical
Conditions: PVC plastic with 35 parts plasticizer; 50 mm/min, 25°C
Description: (§1) The aconitates and tributyl citrate prepared in the above examples and comparative examples were added as plasticizers to PVC resin to obtain PVC plastics. The PVC plastics include 100 parts of PVC resin, 35 parts of plasticizer, 2 parts of oxidized polyethylene wax, and 5 parts of octyltin maleate. The above raw materials were mixed and prepared using the same mixing process to obtain finished PVC products. The performance tests were performed on different plasticizers and the obtained PVC finished products in the above examples and comparative examples. […] Three points were selected for each group of samples, each point was tested once, and a median value was taken. • 2. […] Compatibility: tests were performed using a water value method. Since water molecules are polar, the compatibility between the plasticizer and water can characterize the compatibility between the plasticizer and polar materials (PVC, PLA, and nitrile rubber). When a certain plasticizer has good compatibility with water, it has good compatibility with PVC, and vice versa. In the experiment, 2.5 g of plasticizer and 25 g of acetone were added to a beaker, titrated with a burette filled with deionized water, and agitated while titrating until turbidity appears, and the volume of deionized water consumed was recorded. • 4. Glass transition temperature (Tg): the glass transition temperature was tested using a dynamic mechanical analyzer. Test conditions: nitrogen was taken as the carrier gas, at a test temperature range of -40 to 80°C, a heating rate of 3°C/min, and a frequency of 1 Hz.

SMILES	Elastic modulus	Elongation at break	Tensile modulus at 100%
CCCCOC(=O)C=C(CC(=O)OCCCC)C(=O)OCCCC [Example 34, tributyl aconitate]	77.9 MPa	258.1%	14.7 MPa
CCCCOC(=O)C=C(CC(=O)OCCCC)C(=O)OCCCC [Comparative Example 3, tributyl aconitate, reference compound]	186.7 MPa	233.6%	17.4 MPa
CCCCOC(=O)C=C(CC(=O)OCCCC)C(=O)OCCCC [Example 27, tributyl aconitate]	166.7 MPa	230.3%	17.3 MPa
CCCCOC(=O)CC(O)(CC(=O)OCCCC)C(=O)OCCCC [Comparative Example 4, tributyl citrate, reference compound]	274.8 MPa	201.3%	18.1 MPa
CCCCOC(=O)C=C(CC(=O)OCCCC)C(=O)OCCCC [Example 31, tributyl aconitate]	157.6 MPa	231.5%	17.2 MPa
CCCCOC(=O)C=C(CC(=O)OCCCC)C(=O)OCCCC [Example 28, tributyl aconitate]	88.5 MPa	248.6%	15.2 MPa

Assay: Glass transition temperature (dynamic mechanical analyzer)
Format: physicochemical
Conditions: PVC plastic with 35 parts plasticizer; -40 to 80°C, 3°C/min, 1 Hz
Description: as §1

SMILES	Tg
CCCCOC(=O)C=C(CC(=O)OCCCC)C(=O)OCCCC [Example 34, tributyl aconitate]	27.7 °C
CCCCOC(=O)C=C(CC(=O)OCCCC)C(=O)OCCCC [Comparative Example 3, tributyl aconitate, reference compound]	28.7 °C
CCCCOC(=O)C=C(CC(=O)OCCCC)C(=O)OCCCC [Example 27, tributyl aconitate]	28.5 °C
CCCCOC(=O)CC(O)(CC(=O)OCCCC)C(=O)OCCCC [Comparative Example 4, tributyl citrate, reference compound]	39.7 °C
CCCCOC(=O)C=C(CC(=O)OCCCC)C(=O)OCCCC [Example 31, tributyl aconitate]	29.6 °C
CCCCOC(=O)C=C(CC(=O)OCCCC)C(=O)OCCCC [Example 28, tributyl aconitate]	28.6 °C

Assay: Acid value (KOH titration)
Format: physicochemical
Conditions: aconitate/citrate products, Table 4
Description: The aconitates and citrates prepared in the above examples and comparative examples were tested for acid value, purity, chromaticity, yield, triester conversion rate, and water content. […] The mixture was neutralized with 0.02 mol·L^-1 potassium hydroxide aqueous solution until a faint pink color appears, and the consumed volume Vo was recorded. 1 g of the sample (accurate to 0.01 g) was weighed using a ground-neck conical flask, then one portion of the above neutralized solution was added. After the sample was completely dissolved, the sample was titrated with 0.02 mol·L^-1 potassium hydroxide-ethanol standard titration solution (the titration should be completed within 30 seconds) until a faint pink color appeared and persisted for 5 seconds without fading, which was considered as an end point. The consumed volume V was recorded. […] Chromatographic column: C18 column; injector: 10 µL micro-syringe; solvent: acetonitrile (HPLC grade); acquisition time: 15 min; mobile phase: 80% acetonitrile (HPLC grade) and 20% deionized water; injection volume: 1 µL; wavelength: 230 nm.

SMILES	Acid value
CCCCOC(=O)C=C(CC(=O)OCCCC)C(=O)OCCCC [Example 34, tributyl aconitate]	0.05 KOH/g
CCCCOC(=O)C=C(CC(=O)OCCCC)C(=O)OCCCC [Comparative Example 3, tributyl aconitate, reference compound]	0.05 KOH/g
CCCCOC(=O)C=C(CC(=O)OCCCC)C(=O)OCCCC [Example 27, tributyl aconitate]	0.05 KOH/g
CCCCOC(=O)CC(O)(CC(=O)OCCCC)C(=O)OCCCC [Comparative Example 4, tributyl citrate, reference compound]	0.05 KOH/g
CCCCOC(=O)C=C(CC(=O)OCCCC)C(=O)OCCCC [Example 31, tributyl aconitate]	0.05 KOH/g
CCCCOC(=O)C=C(CC(=O)OCCCC)C(=O)OCCCC [Example 28, tributyl aconitate]	0.05 KOH/g

Assay: Compatibility (water value method)
Format: physicochemical
Conditions: 2.5 g plasticizer and 25 g acetone titrated with deionized water until turbidity; Table 5
Description: as §1

SMILES	Compatibility
CCCCOC(=O)C=C(CC(=O)OCCCC)C(=O)OCCCC [Example 34, tributyl aconitate]	16.1 mL
CCCCOC(=O)C=C(CC(=O)OCCCC)C(=O)OCCCC [Comparative Example 3, tributyl aconitate, reference compound]	12.5 mL
CCCCOC(=O)C=C(CC(=O)OCCCC)C(=O)OCCCC [Example 27, tributyl aconitate]	12.4 mL
CCCCOC(=O)CC(O)(CC(=O)OCCCC)C(=O)OCCCC [Comparative Example 4, tributyl citrate, reference compound]	13.9 mL
CCCCOC(=O)C=C(CC(=O)OCCCC)C(=O)OCCCC [Example 31, tributyl aconitate]	12.5 mL
CCCCOC(=O)C=C(CC(=O)OCCCC)C(=O)OCCCC [Example 28, tributyl aconitate]	14.4 mL

Assay: Residual amounts of fat-soluble and water-soluble pigments (HPLC)
Format: physicochemical
Conditions: aconitate/citrate products, Table 4
Description: 7. Residual amounts of fat-soluble pigments and water-soluble pigments: • a high-performance liquid chromatograph (HPLC) was used, and the instrument sensitivity and stability of the detector should comply with the provisions of GB/T 16631-2008. Chromatographic column: C18 column; injector: 10 µL micro-syringe; solvent: acetonitrile (HPLC grade); acquisition time: 15 min; mobile phase: 80% acetonitrile (HPLC grade) and 20% deionized water; injection volume: 1 µL; wavelength: 230 nm.
Test: the instrument was adjusted according to the above provisions. After the baseline was stable, 0.2 µL of the sample was injected using a micro-syringe, and the integrator or chromatographic workstation was started at the same time. A pigment concentration-integral area standard curve was established by testing the integral areas of pigments with different concentrations. When the pigment content was measured, the corresponding pigment integral area was automatically given by the instrument, and the pigment concentration was obtained by comparing with the standard curve. The ratio of the pigment concentration to the sample concentration is the pigment content.

SMILES	Residual amounts of fat-soluble pigments	Residual amounts of water-soluble pigments
CCCCOC(=O)C=C(CC(=O)OCCCC)C(=O)OCCCC [Example 34, tributyl aconitate]	428 ppm	864 ppm
CCCCOC(=O)C=C(CC(=O)OCCCC)C(=O)OCCCC [Comparative Example 3, tributyl aconitate, reference compound]	2864 ppm	2698 ppm
CCCCOC(=O)C=C(CC(=O)OCCCC)C(=O)OCCCC [Example 27, tributyl aconitate]	4650 ppm	415 ppm
CCCCOC(=O)CC(O)(CC(=O)OCCCC)C(=O)OCCCC [Comparative Example 4, tributyl citrate, reference compound]	3054 ppm	2156 ppm
CCCCOC(=O)C=C(CC(=O)OCCCC)C(=O)OCCCC [Example 31, tributyl aconitate]	427 ppm	1715 ppm
CCCCOC(=O)C=C(CC(=O)OCCCC)C(=O)OCCCC [Example 28, tributyl aconitate]	1658 ppm	408 ppm

Assay: Hardness (Shore hardness tester, GB/T 531-2008)
Format: physicochemical
Conditions: PVC plastic: 100 parts PVC resin, 35 parts plasticizer, 2 parts oxidized polyethylene wax, 5 parts octyltin maleate
Description: as §1, with “The PVC plastics include 100 parts of PVC resin, 35 parts of plasticizer, 2 parts of oxidized polyethylene wax, and 5 parts of octyltin maleate.” left out

SMILES	Hardness/Shore D
CCCCOC(=O)C=C(CC(=O)OCCCC)C(=O)OCCCC [Example 34, tributyl aconitate]	41 Shore D
CCCCOC(=O)C=C(CC(=O)OCCCC)C(=O)OCCCC [Comparative Example 3, tributyl aconitate, reference compound]	45 Shore D
CCCCOC(=O)C=C(CC(=O)OCCCC)C(=O)OCCCC [Example 27, tributyl aconitate]	45 Shore D
CCCCOC(=O)CC(O)(CC(=O)OCCCC)C(=O)OCCCC [Comparative Example 4, tributyl citrate, reference compound]	51 Shore D
CCCCOC(=O)C=C(CC(=O)OCCCC)C(=O)OCCCC [Example 31, tributyl aconitate]	45 Shore D
CCCCOC(=O)C=C(CC(=O)OCCCC)C(=O)OCCCC [Example 28, tributyl aconitate]	42 Shore D

Assay: Water content (Karl Fischer moisture meter)
Format: physicochemical
Conditions: aconitate/citrate products, Table 4
Excerpt: 6. Water content: a Karl Fischer moisture meter is used to test the water content (retained to two decimal places).

SMILES	Water content
CCCCOC(=O)C=C(CC(=O)OCCCC)C(=O)OCCCC [Example 34, tributyl aconitate]	0.03%
CCCCOC(=O)C=C(CC(=O)OCCCC)C(=O)OCCCC [Comparative Example 3, tributyl aconitate, reference compound]	0.04%
CCCCOC(=O)C=C(CC(=O)OCCCC)C(=O)OCCCC [Example 27, tributyl aconitate]	0.05%
CCCCOC(=O)CC(O)(CC(=O)OCCCC)C(=O)OCCCC [Comparative Example 4, tributyl citrate, reference compound]	0.04%
CCCCOC(=O)C=C(CC(=O)OCCCC)C(=O)OCCCC [Example 31, tributyl aconitate]	0.03%
CCCCOC(=O)C=C(CC(=O)OCCCC)C(=O)OCCCC [Example 28, tributyl aconitate]	0.04%

Assay: Chromaticity (platinum-cobalt colorimetry)
Format: physicochemical
Conditions: aconitate/citrate products, Table 4; colour comparison at 25°C
Description: 3. Chromaticity: preparation of 500# platinum-cobalt colorimetric standard stock solution: 1.2450 g of potassium chloroplatinate and 1.0000 g of cobalt chloride were weighed, with an accuracy of 0.0002 g, the mixture was dissolved in 100 mL of hydrochloric acid, and then diluted to 1000 mL with distilled water. This solution is just the 500# colorimetric standard comparison solution.
Preparation of colorimetric standards below 500#: different amounts of the 500# stock solution was prepared, and diluted with distilled water to the volume of a colorimetric tube to prepare colorimetric standard solutions of any number. The calculation formula is as follows: V = (N×V1)/500 [formula]
In the formula, V is the volume of the 500# standard stock solution taken to prepare the N# colorimetric standard solution, in mL; V1 is the volume of the colorimetric tube used, in mL; and N is the number of the colorimetric standard solution to be prepared.
Color comparison determination was performed at 25°C.

SMILES	Chromaticity
CCCCOC(=O)C=C(CC(=O)OCCCC)C(=O)OCCCC [Example 34, tributyl aconitate]	50 Pt-Co
CCCCOC(=O)C=C(CC(=O)OCCCC)C(=O)OCCCC [Comparative Example 3, tributyl aconitate, reference compound]	150 Pt-Co
CCCCOC(=O)C=C(CC(=O)OCCCC)C(=O)OCCCC [Example 27, tributyl aconitate]	200 Pt-Co
CCCCOC(=O)CC(O)(CC(=O)OCCCC)C(=O)OCCCC [Comparative Example 4, tributyl citrate, reference compound]	150 Pt-Co
CCCCOC(=O)C=C(CC(=O)OCCCC)C(=O)OCCCC [Example 31, tributyl aconitate]	60 Pt-Co
CCCCOC(=O)C=C(CC(=O)OCCCC)C(=O)OCCCC [Example 28, tributyl aconitate]	40 Pt-Co

Reference: patent EP4715056A1, “BIO-BASED TRANS-ACONITATE, PREPARATION METHOD THEREFOR AND USE THEREOF” (Qingdao Institute of Bioenergy and Bioprocess Technology, …, priority 2023, dated 2024)
